Measured values as given in ChEMBL document CHEMBL5241112, “Insights into the recent progress in the medicinal chemistry of pyranopyrimidine analogs” (RSC Med Chem, 2022).
Converted amounts (≈) assume the structure as drawn. Blank lines part the entries; values can stand above or below the compound they belong to.

Tests used:
[1] = biological target: Polyunsaturated fatty acid 5-lipoxygenase (Homo sapiens, UniProt P09917); assay: Inhibition of 5-LOX (unknown origin) by colorimetric analysis
[2] = cells; conditions: Homo sapiens, Macrophage
[3] = Antioxidant activity assessed as DPPH radical scavenging activity incubated for 20 mins by spectrophotometric analysis; format: functional; design: concentration or dose not given beside the values
[4] = organism: Capra hircus; assay: Inhibition of goat lens AR assessed as gibbs binding free energy
[5] = organism: Capra hircus; assay: Inhibition of goat lens AR at 100 uM incubated for 10 mins in presence of NADPH by spectroscopic analysis
[6] = Antioxidant activity assessed as hydroxyl radical scavenging activity incubated for 5 mins by spectrophotometric analysis; format: functional; design: concentration or dose not given beside the values
[7] = Selectivity index, ratio of CC50 for cytotoxicity against human MT4 cells to EC50 for antiviral activity against HIV1 IIIB infected in human MT4 cells; format: toxicity, cell-based; conditions: read-out: Selectivity Index
[8] = Cytotoxicity against human MT4 cells assessed as reduction in cell viability by MTT assay; format: toxicity, cell-based
[9] = test system: Human immunodeficiency virus 1; assay: Antiviral activity against HIV1 IIIB infected in human MT4 cells assessed as reduction in virus-induced cytopathic effect by MTT assay; format: functional, organism-based; conditions: Human immunodeficiency virus 1, IIIB
[10] = Selectivity index, ratio of CC50 for cytotoxicity against human MT4 cells to EC50 for antiviral activity against HIV2 ROD infected in human MT4 cells; format: toxicity, cell-based; conditions: read-out: Selectivity Index
[11] = test system: Human immunodeficiency virus 2; assay: Antiviral activity against HIV2 ROD infected in human MT4 cells assessed as reduction in virus-induced cytopathic effect by MTT assay; format: functional, organism-based; conditions: Human immunodeficiency virus 2, ROD
[12] = test system: PANC-1; assay: Antiproliferative activity against human PANC-1 cells assessed as reduction in cell viability by MTT assay; format: functional, cell-based
[13] = Cytotoxicity against human HDF cells assessed as reduction in cell viability by MTT assay; format: toxicity, cell-based; conditions: HDF cells (NHDF cell line)
[14] = test system: MDA-MB-231; assay: cells; conditions: Homo sapiens
[15] = test system: HT-29; assay: Antiproliferative activity against human HT-29 cells assessed as reduction in cell viability by MTT assay; format: functional, cell-based
[16] = test system: Aspergillus ochraceus; assay: Antifungal activity against Aspergillus ochraceus assessed as diameter of inhibition zone by disc diffusion method; format: functional
[17] = test system: Staphylococcus aureus; assay: Antibacterial activity against Staphylococcus aureus assessed as diameter of inhibition zone by disc diffusion method; format: functional
[18] = test system: Serratia marcescens; assay: Antibacterial activity against Serratia marcescens assessed as diameter of inhibition zone by disc diffusion method; format: functional
[19] = test system: Penicillium chrysogenum; assay: Antifungal activity against Penicillium chrysogenum assessed as diameter of inhibition zone by disc diffusion method; format: functional
[20] = test system: Bacillus cereus; assay: Antibacterial activity against Bacillus cereus assessed as diameter of inhibition zone by disc diffusion method; format: functional
[21] = biological target: Alpha-glucosidase (Mus musculus); assay: Inhibition of mouse alpha-glucosidase assessed as decrease in release of p-nitrophenol using pNPG as substrate preincubated for 10 mins followed by substrate addition and measured after 30 mins by spectroscopic analysis
[22] = biological target: Alpha-glucosidase (Saccharomyces cerevisiae S288c, UniProt P53341+P38158+P07265); assay: Inhibition of Saccharomyces cerevisiae alpha-glucosidase assessed as decrease in release of p-nitrophenol using pNPG as substrate incubated for 10 mins by spectroscopic analysis; format: protein assay

Sequence of Polyunsaturated fatty acid 5-lipoxygenase (P09917 whole entry): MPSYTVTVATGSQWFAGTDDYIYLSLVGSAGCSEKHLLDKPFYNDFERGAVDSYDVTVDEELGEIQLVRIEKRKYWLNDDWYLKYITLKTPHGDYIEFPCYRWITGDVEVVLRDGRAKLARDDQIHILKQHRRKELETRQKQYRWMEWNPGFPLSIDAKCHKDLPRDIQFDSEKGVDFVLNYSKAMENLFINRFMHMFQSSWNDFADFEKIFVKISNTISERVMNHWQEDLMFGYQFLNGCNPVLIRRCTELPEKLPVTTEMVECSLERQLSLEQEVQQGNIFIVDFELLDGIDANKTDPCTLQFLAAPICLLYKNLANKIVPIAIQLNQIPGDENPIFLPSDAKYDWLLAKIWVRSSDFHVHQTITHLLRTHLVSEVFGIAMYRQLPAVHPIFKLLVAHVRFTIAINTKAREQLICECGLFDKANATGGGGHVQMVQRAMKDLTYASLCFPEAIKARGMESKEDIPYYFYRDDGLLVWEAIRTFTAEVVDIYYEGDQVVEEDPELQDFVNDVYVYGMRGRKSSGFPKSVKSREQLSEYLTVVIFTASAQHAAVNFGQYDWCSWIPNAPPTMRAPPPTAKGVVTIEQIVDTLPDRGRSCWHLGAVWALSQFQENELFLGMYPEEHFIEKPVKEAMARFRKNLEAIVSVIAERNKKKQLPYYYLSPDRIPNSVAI

- IC50 [1]: 1930 nM
- IC50 [2]: 3.5 µM
SMILES: N=c1c2c(ncn1-c1ccccc1)Oc1[nH]c(=S)[nH]c(=O)c1C2c1ccc(Cl)cc1 (centres undefined)

SMILES: Cc1nn(-c2ccccc2)c(Cl)c1C1c2[nH]c(=O)[nH]c(=O)c2Oc2c1c(=O)oc1ccccc21 (centres undefined)
- Activity [3]: 59.1%
- deltaG [4]: -10.4 kcal/mol
- inhibition [5]: 60%
- Activity [6]: 54.3%

SMILES: N=c1c2c(ncn1N)Oc1c(c(=O)oc3ccccc13)C2c1cccc2ccccc12 (centres undefined)
- selectivity ratio [7]: < 1
- CC50 [8]: 4.84 µg/mL (≈ 11.9 µM)
- EC50 [9]: 4.84 µg/mL (≈ 11.9 µM)
- selectivity ratio [10]: < 1
- EC50 [11]: 4.84 µg/mL (≈ 11.9 µM)

- IC50 ([12]; read-out: IC50): 14.2 µM
- IC50 [14]: 10.9 µM
SMILES: N#CC1=C(N)Oc2[nH]c(=O)[nH]c(=O)c2C12c1cc(Br)ccc1-n1c2nc2ccccc2c1=O (centres undefined)
- IC50 [13]: > 100 µM

- IC50 [12]: 24.4 µM
- IC50 [15]: 25.6 µM
- IC50 [14]: 30.6 µM
SMILES: COc1cc([C@@H]2c3cc4c(cc3[C@@H](O[C@@H]3O[C@@H]5CO[C@@H](C)O[C@H]5[C@H](O)[C@H]3O)[C@H]3COC(=O)[C@H]23)OCO4)cc(OC)c1O [ETOPOSIDE]

SMILES: N#CCc1nc2c3c(ncn2n1)Oc1ccc2cc(Br)ccc2c1C3
- diameter of the inhibition zone (DIZ) [16]: 17 mm
- diameter of the inhibition zone (DIZ) [17]: 25 mm
- diameter of the inhibition zone (DIZ) [18]: 23 mm
- diameter of the inhibition zone (DIZ) [19]: 13 mm

SMILES: CCOC(=O)c1nc2c3c(ncn2n1)Oc1ccc2cc(Br)ccc2c1C3
- diameter of the inhibition zone (DIZ) [16]: 17 mm
- diameter of the inhibition zone (DIZ) [18]: 24 mm
- diameter of the inhibition zone (DIZ) [20]: 23 mm
- diameter of the inhibition zone (DIZ) [19]: 22 mm

- IC50 [21]: 46.04 µM
- IC50 [22]: 27.6 µM
SMILES: COc1cc(/C=C/C(=O)C2=C(/C=C/c3ccc(O)c(OC)c3)Oc3[nH]c(=O)[nH]c(=O)c3C2c2c(Cl)cccc2Cl)ccc1O (centres undefined)

- IC50 [15]: 23.7 µM
SMILES: N#CC1=C(N)Oc2[nH]c(=O)[nH]c(=O)c2C12c1ccccc1-n1c2nc2ccccc2c1=O (centres undefined)
- IC50 [13]: > 100 µM
